Tests used:
Assay type in all cases: in vivo
[1] = tested on: DIGSA (Digitaria sanguinalis (L.) Scop., large crabgrass); test: Postemergence foliar-applied herbicidal mixtures, direct seeded rice, greenhouse (Example I)
Text: (§1) Seeds or nutlets of the desired test plant species were planted in a soil matrix prepared by mixing a loam or sandy loam soil (e.g., 28.6 percent silt, 18.8 percent clay, and 52.6 percent sand, with a pH of about 5.8 and an organic matter content of about 1.8 percent) and calcareous grit in an 80 to 20 ratio. The soil matrix was contained in plastic pots with a volume of 1 quart and a surface area of 83.6 square centimeters (cm^2). When required to ensure good germination and healthy plants, a fungicide treatment and/or other chemical or physical treatment was applied. The plants were grown for 8-22 days in a greenhouse with an approximate 14 h photoperiod which was maintained at about 29° C. during the day and about 26° C. during the night. Nutrients (Peters Excel® 15-5-15 5-Ca 2-Mg and iron chelate) were applied in the irrigation solution as needed and water was added on a regular basis. Supplemental lighting was provided with overhead metal halide 1000-Watt lamps as necessary. The plants were employed for testing when they reached the first through fourth true leaf stage.
(§2) Treatments consisted of the acid or esters of 4-amino-3-chloro-5-fluoro-6-(4-chloro-2-fluoro-3-methoxy-phenyl)pyridine-2-carboxylic acid (Compound A), each formulated as an SC (suspension concentrate), and various herbicidal components alone and in combination. Forms of compound A were applied on an acid equivalent basis.
(§3) Other herbicidal components were applied on an active ingredient basis and included acetolactate synthase (ALS)-inhibiting herbicides (sulfonamide chemical class) penoxsulam formulated as Grasp® SC, diclosulam formulated as Strongarm®, and cloransulam-methyl formulated as FirstRate®, flumetsulam formulated as Flumetsulam WG, and metosulam formulated as Eclipse®.
(§4) Treatment requirements were calculated based upon the rates being tested, the concentration of active ingredient or acid equivalent in the formulation, and a 12 mL application volume at a rate of 187 L/ha.
(§5) For treatments comprised of formulated compounds, measured amounts of compounds were placed individually in 25 mL glass vials and diluted in a volume of 1.25% (v/v) Agri-Dex® crop oil concentrated to obtain 12× stock solutions. […] Application solutions were prepared by adding an appropriate amount of each stock solution (e.g., 1 mL) and diluted to the appropriate final concentrations with the addition of 10 mL of an aqueous mixture of 1.25% (v/v) crop oil concentrate so that the final spray solutions contained 1.25+/−0.05% (v/v) crop oil concentrate.
(§6) All stock solutions and applications solutions were visually inspected for compound compatibility prior to application. Spray solutions were applied to the plant material with an overhead Mandel track sprayer equipped with an 8002E nozzle calibrated to deliver 187 L/ha over an application area of 0.503 m^2 at a spray height of 18 to 20 inches (46 to 50 cm) above average plant canopy height. Control plants were sprayed in the same manner with the solvent blank.
(§7) The treated plants and control plants were placed in a greenhouse as described above and watered by sub-irrigation to prevent wash-off of the test compounds. After approximately 3 weeks, the condition of the test plants as compared with that of the untreated plants was determined visually and scored on a scale of 0 to 100 percent where 0 corresponds to no injury or growth inhibition and 100 corresponds to complete kill.
(§8) Colby's equation was used to determine the herbicidal effects expected from the mixtures (Colby, S. R. 1967. Calculation of the synergistic and antagonistic response of herbicide combinations. Weeds 15:20-22.).
(§9) The following equation was used to calculate the expected activity of mixtures containing two active ingredients, A and B: Expected=A+B−(A×B/100)

[2] = tested on: IPOHE (Ipomoea hederacea Jacq., ivyleaf morningglory); test: as above
Text: as §1, §2, §3, §4, §5, §6, §7, §8, §9

[3] = tested on: LEFCH (Leptochloa chinensis (L.) Nees, Chinese sprangletop); test: as above
Text: as §1, §2, §3, §4, §5, §6, §7, §8, §9

[4] = tested on: CYPDI (Cyperus difformis L., smallflower umbrella sedge); test: In-water applied herbicidal mixtures, transplanted paddy rice, greenhouse (Example II); conditions: Compound A Acid 16 gae/ha
Method: (§10) Weed seeds or nutlets of the desired test plant species were planted in puddled soil (mud) prepared by mixing a shredded, non-sterilized mineral soil (50.5 percent silt, 25.5 percent clay, and 24 percent sand, with a pH of about 7.6 and an organic matter content of about 2.9 percent) and water at a 1:1 volumetric ratio. The prepared mud was dispensed in 365 mL aliquots into 16-ounce (oz.) non-perforated plastic pots with a surface area of 86.59 square centimeters (cm^2) leaving a headspace of 3 centimeters in each pot. Mud was allowed to dry overnight prior to planting or transplanting. Rice seeds were planted in Sun Gro MetroMix® 306 planting mixture, which typically has a pH of 6.0 to 6.8 and an organic matter content of about 30 percent, in plastic plug trays. Seedlings at the second or third leaf stage of growth were transplanted into 840 mL of mud contained in 32-oz. non-perforated plastic pots with a surface area of 86.59 cm^2 4 days prior to herbicide application. The paddy was created by filling the headspace of the pots with 2.5 to 3 cm of water. When required to ensure good germination and healthy plants, a fungicide treatment and/or other chemical or physical treatment was applied. The plants were grown for 4-22 days in a greenhouse with an approximate 14 h photoperiod which was maintained at about 29′C during the day and about 26° C. during the night. Nutrients were added as Osmocote® (19:6:12, N:P:K+minor nutrients) at 2 g per 16-oz. pot and 4 g per 32-oz. pot. Water was added on a regular basis to maintain the paddy flood, and supplemental lighting was provided with overhead metal halide 1000-Watt lamps as necessary. The plants were employed for testing when they reached the first through fourth true leaf stage.
(§11) Treatments consisted of the acid or esters of 4-amino-3-chloro-5-fluoro-6-(4-chloro-2-fluoro-3-methoxy-phenyl)pyridine-2-carboxylic acid (compound A) each formulated as an SC and various herbicidal components alone and in combination. Forms of compound A were applied on an acid equivalent basis.
(§12) Other herbicidal components were applied on an active ingredient basis and included acetolactate synthase (ALS)-inhibiting herbicides (sulfonamide chemical class) penoxsulam formulated as Grasp® SC (GF-443), diclosulam formulated as Strongarm®, and cloransulam-methyl formulated as FirstRate®.
(§13) Treatment requirements for each compound or herbicidal component were calculated based upon the rates being tested, the concentration of active ingredient or acid equivalent in the formulation, an application volume of 2 mL per component per pot, and an application area of 86.59 cm^2 per pot.
(§14) For formulated compounds, a measured amount was placed in an individual 100 or 200 mL glass vial and was dissolved in a volume of 1.25% (v/v) Agri-Dex® crop oil concentrate to obtain each application solution.
(§15) Applications were made by injecting with a pipetter appropriate amounts of the application solutions, individually and sequentially, into the aqueous layer of the paddy. Control plants were treated in the same manner with the solvent blank. Applications were made so that all treated plant material received the same concentrations of acetone and crop oil concentrate.
as §7, with “water was added as needed” for “watered by sub-irrigation”, “maintain a paddy flood.” for “prevent wash-off of the test compounds.”, “weeks” for “weeks,”
as §8, §9

[5] = tested on: CYPRO (Cyperus rotundus L., purple nutsedge); test: as above; conditions: Compound A Acid 8.75 gae/ha
Method: as §10, §11, §12, §13, §14, §15
as §7, with “water was added as needed” for “watered by sub-irrigation”, “maintain a paddy flood.” for “prevent wash-off of the test compounds.”, “weeks” for “weeks,”
as §8, §9

[6] = tested on: ECHCG (Echinochloa crusgalli (L.) Beauv., barnyardgrass); test: as above
Method: as §10, §11, §12, §13, §14, §15
as §7, with “water was added as needed” for “watered by sub-irrigation”, “maintain a paddy flood.” for “prevent wash-off of the test compounds.”, “weeks” for “weeks,”
as §8, §9

[7] = tested on: FIMMI (Fimbristylis miliacea (L.) Vahl, globe fringerush); test: as above
Method: as §10, §11, §12, §13, §14, §15
as §7, with “water was added as needed” for “watered by sub-irrigation”, “maintain a paddy flood.” for “prevent wash-off of the test compounds.”, “weeks” for “weeks,”
as §8, §9

[8] = tested on: LEFCH (Leptochloa chinensis (L.) Nees, Chinese sprangletop); test: as above
Method: as §10, §11, §12, §13, §14, §15
as §7, with “water was added as needed” for “watered by sub-irrigation”, “maintain a paddy flood.” for “prevent wash-off of the test compounds.”, “weeks” for “weeks,”
as §8, §9

Compound: COc1c(Cl)ccc(-c2nc(C(=O)O)c(Cl)c(N)c2F)c1F [Compound A Acid, 4-amino-3-chloro-5-fluoro-6-(4-chloro-2-fluoro-3-methoxy-phenyl)pyridine-2-carboxylic acid]
- Visual Weed Control (%) - 20 DAA DIGSA Obs ([1]; Compound A Acid 5.3 gae/ha): 10%
- Visual Weed Control (%) - 20 DAA DIGSA Obs ([1]; Compound A Acid 10.6 gae/ha): 20%
- Visual Weed Control (%) - 20 DAA DIGSA Obs ([1]; Compound A Acid 21.2 gae/ha): 20%
- Visual Weed Control (%) - 27 DAA IPOHE Obs ([2]; Compound A Acid 4.38 gae/ha): 10%
- Visual Weed Control (%) - 27 DAA IPOHE Obs ([2]; Compound A Acid 8.75 gae/ha): 10%
- Visual Weed Control (%) - 27 DAA IPOHE Obs ([2]; Compound A Acid 17.5 gae/ha): 10%
- Visual Weed Control (%) - 20 DAA LEFCH Obs ([3]; Compound A Acid 4.38 gae/ha): 15%
- Visual Weed Control (%) - 20 DAA LEFCH Obs ([3]; Compound A Acid 5.3 gae/ha): 0%
- Visual Weed Control (%) - 20 DAA LEFCH Obs ([3]; Compound A Acid 8.75 gae/ha): 30%
- Visual Weed Control (%) - 20 DAA LEFCH Obs ([3]; Compound A Acid 10.6 gae/ha): 10%
- Visual Weed Control (%) - 20 DAA LEFCH Obs ([3]; Compound A Acid 17.5 gae/ha): 50%
- Visual Weed Control (%) - 19 DAA LEFCH Obs ([3]; Compound A Acid 19.4 gae/ha): 5%
- Visual Weed Control (%) - 20 DAA LEFCH Obs ([3]; Compound A Acid 21.2 gae/ha): 15%
- Visual Weed Control (%) - 21 DAA CYPDI Obs [4]: 30%
- Visual Weed Control (%) - 21 DAA CYPRO Obs [5]: 0%
- Visual Weed Control (%) - 22 DAA ECHCG Obs ([6]; Compound A Acid 16 gae/ha): 20%
- Visual Weed Control (%) - 22 DAA ECHCG Obs ([6]; Compound A Acid 32 gae/ha): 25%
- Visual Weed Control (%) - 21 DAA FIMMI Obs ([7]; Compound A Acid 16 gae/ha): 20%
- Visual Weed Control (%) - 21 DAA FIMMI Obs ([7]; Compound A Acid 32 gae/ha): 20%
- Visual Weed Control (%) - 25 DAA LEFCH Obs ([8]; Compound A Acid 8.75 gae/ha): 50%
- Visual Weed Control (%) - 25 DAA LEFCH Obs ([8]; Compound A Acid 17.5 gae/ha): 50%
- Visual Weed Control (%) - 25 DAA LEFCH Obs ([8]; Compound A Acid 35 gae/ha): 85%
